{"source": "ChEMBL document CHEMBL4219259", "about": "“Molecular Determinants Conferring the Stoichiometric-Dependent Activity of α-Conotoxins at the Human α9α10 Nicotinic Acetylcholine Receptor Subtype” (J Med Chem, 2018)", "molecular_target": "Neuronal acetylcholine receptor; alpha9/alpha10 (Homo sapiens, UniProt Q9GZZ6+Q9UGM1)", "sequence (Q9UGM1 whole entry)": "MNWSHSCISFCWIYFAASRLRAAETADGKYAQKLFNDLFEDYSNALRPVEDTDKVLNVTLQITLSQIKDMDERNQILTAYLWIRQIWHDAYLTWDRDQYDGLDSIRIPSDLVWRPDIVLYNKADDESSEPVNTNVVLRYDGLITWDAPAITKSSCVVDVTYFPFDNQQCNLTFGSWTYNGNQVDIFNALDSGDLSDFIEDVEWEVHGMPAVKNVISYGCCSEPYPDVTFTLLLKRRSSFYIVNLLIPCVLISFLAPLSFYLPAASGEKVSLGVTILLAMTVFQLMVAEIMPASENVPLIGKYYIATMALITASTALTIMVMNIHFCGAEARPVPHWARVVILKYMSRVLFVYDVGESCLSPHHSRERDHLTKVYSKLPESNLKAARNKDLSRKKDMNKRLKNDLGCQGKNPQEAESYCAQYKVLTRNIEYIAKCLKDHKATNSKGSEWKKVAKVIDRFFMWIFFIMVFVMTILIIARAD", "sequence (Q9GZZ6 whole entry)": "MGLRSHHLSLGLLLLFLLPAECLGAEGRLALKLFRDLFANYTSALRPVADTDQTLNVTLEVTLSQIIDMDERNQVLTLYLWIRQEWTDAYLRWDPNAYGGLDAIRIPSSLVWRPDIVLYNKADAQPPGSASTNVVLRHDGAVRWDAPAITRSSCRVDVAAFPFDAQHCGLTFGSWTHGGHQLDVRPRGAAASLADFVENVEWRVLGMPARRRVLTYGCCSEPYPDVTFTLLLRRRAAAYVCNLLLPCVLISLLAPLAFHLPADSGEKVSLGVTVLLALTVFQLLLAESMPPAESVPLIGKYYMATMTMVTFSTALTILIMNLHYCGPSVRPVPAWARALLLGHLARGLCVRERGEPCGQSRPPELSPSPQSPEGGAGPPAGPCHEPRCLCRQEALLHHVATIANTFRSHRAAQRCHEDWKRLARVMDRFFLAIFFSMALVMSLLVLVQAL", "test": "Inhibition of human alpha9/alpha10 nACHR (1:1) expressed in Xenopus laevis oocyte assessed as inhibition of ACh induced channel current measured for 2 to 5 days at -80 mV holding potential by two electrode voltage clamp method", "note": "Peptide text beside a SMILES is read from it.", "data": [{"smiles": "CC(C)[C@@H]1NC(=O)[C@H](CO)NC(=O)[C@@H]2CSSC[C@H](NC(=O)CN)C(=O)N[C@@H](CSSC[C@@H](C(N)=O)NC(=O)[C@H](CCCCN)NC(=O)[C@H](CC(N)=O)NC(=O)[C@@H]3CCCN3C(=O)[C@H](Cc3ncc[nH]3)NC(=O)[C@H](CC(=O)O)NC1=O)C(=O)N[C@@H](CO)C(=O)N[C@@H](Cc1ncc[nH]1)C(=O)N1CCC[C@H]1C(=O)N[C@@H](C)C(=O)N2", "note": "(HELM PEPTIDE1{G.C.C.S.[O=C([C@H](Cc1ncc[nH]1)N[*:1])[*:2]].P.A.C.S.V.D.[O=C([C@H](Cc1ncc[nH]1)N[*:1])[*:2]].P.N.K.C.[am]}$PEPTIDE1,PEPTIDE1,2:R3-8:R3|PEPTIDE1,PEPTIDE1,3:R3-16:R3$$$V2.0)", "values": [{"measurement": "IC50", "value": 22.2, "unit": "µM"}]}]}
